Source: ChEMBL document CHEMBL2396568, “An insight into synthetic Schiff bases revealing antiproliferative activities in vitro” (Bioorg Med Chem, 2013)
Values belong to the molecule of their own block, whether it stands above or below them.

Columns and labels:
PC-3 = assay: Antiproliferative activity against human PC3 cells after 24 hrs by MTT assay; assay type: functional, cell-based; conditions: PC-3, 24 h
MCF7 [1] = assay: Antiproliferative activity against human MCF7 cells after 24 hrs by MTT assay; assay type: functional, cell-based; conditions: MCF7, 24 h
A2780 [2] = assay: Antiproliferative activity against human A2780 cells after 72 hrs by MTT assay; assay type: functional, cell-based; conditions: A2780, 72 h
A2780 [3] = assay: Antiproliferative activity against cisplatin-resistant human A2780 cells after 72 hrs by MTT assay; assay type: functional, cell-based; conditions: A2780, 72 h
[4] = Antiproliferative activity against human HCV29T cells after 72 hrs by sulforhodamine B assay; assay type: functional; conditions: read-out: ID50 (the source's name)
[5] = Antiproliferative activity against human SW707 cells after 72 hrs by sulforhodamine B assay; assay type: functional; conditions: SW707, 72 h, read-out: ID50 (the source's name)
CCRF-CEM = assay: Antiproliferative activity against human CCRF-CEM cells after 96 hrs by MTT assay; assay type: functional, cell-based
WIL2-NS = assay: Antiproliferative activity against human WIL2-NS cells after 96 hrs by MTT assay; assay type: functional, cell-based
MT4 = assay: Antiproliferative activity against human MT4 cells after 96 hrs by MTT assay; assay type: functional, cell-based; conditions: MT4, 96 h
CCRF-SB = assay: Antiproliferative activity against human CCRF-SB cells after 96 hrs by MTT assay; assay type: functional, cell-based
MCF7 [6] = assay: Antiproliferative activity against human MCF7 cells after 96 hrs by MTT assay; assay type: functional, cell-based; conditions: MCF7, 96 h
SK-MEL-28 = assay: Antiproliferative activity against human SK-MEL-28 cells after 96 hrs by MTT assay; assay type: functional, cell-based; conditions: SK-MEL-28, 96 h
HEp-2 = assay: Antiproliferative activity against human Hep2 cells after 48 hrs by sulforhodamine B assay; assay type: functional, cell-based; conditions: HEp-2, 48 h
HCT-116 [7] = assay: Antiproliferative activity against human HCT116 cells after 48 hrs by sulforhodamine B assay; assay type: functional, cell-based; conditions: HCT-116, 48 h
HCT-116 [8] = assay: Selectivity ratio of IC50 for human HCT116 cells to IC50 for human Hep2 cells; assay type: functional
HeLa [9] = assay: Antiproliferative activity against human HeLa cells after 24 hrs by MTT assay; assay type: functional, cell-based
A549 [10] = assay: Antiproliferative activity against human A549 cells after 24 hrs by MTT assay; assay type: functional, cell-based; conditions: A549, 24 h
HeLa [11] = assay: Antiproliferative activity against human HeLa cells after 48 hrs by MTT assay; assay type: functional, cell-based
A549 [12] = assay: Antiproliferative activity against human A549 cells after 48 hrs by MTT assay; assay type: functional, cell-based; conditions: A549, 48 h
KB [13] = assay: Antiproliferative activity against wild-type human KB cells after 24 hrs by MTS assay; assay type: functional, cell-based
KB [14] = assay: Antiproliferative activity against hydroxyurea-resistant human KB cells after 24 hrs by MTS assay; assay type: functional, cell-based
K562 = assay: Antiproliferative activity against human K562 cells by MTT assay; assay type: functional, cell-based
MCF7 [15] = assay: Antiproliferative activity against doxorubicin-resistant human MCF7 cells after 72 hrs by neutral red uptake assay; assay type: functional, cell-based; conditions: mcf7
KB [16] = assay: Antiproliferative activity against human KB cells after 72 hrs by neutral red uptake assay; assay type: functional, cell-based; conditions: kb
MCF7 [17] = assay: Antiproliferative activity against wild-type human MCF7 cells after 72 hrs by neutral red uptake assay; assay type: functional, cell-based; conditions: mcf7

IC50 (PC-3): 522 µM
IC50 (MCF7 [1]): 715 µM
Structure (SMILES): Oc1ccccc1/C=N\CCn1cccn1

IC50 (PC-3): 39 µM
IC50 (MCF7 [1]): 32 µM
IC50 (A2780 [2]): 27 µM
IC50 (A2780 [3]): 26 µM
Structure (SMILES): Oc1c(Cl)cc(Cl)cc1/C=N\CCn1cccn1

IC50 (PC-3): 32 µM
IC50 (MCF7 [1]): 34 µM
IC50 (A2780 [2]): 20 µM
IC50 (A2780 [3]): 25 µM
Structure (SMILES): Oc1c(I)cc(I)cc1/C=N\CCn1cccn1

Structure (SMILES): COc1ccc(/C=N/c2nc3ccccc3[nH]2)cc1
IC50 [4]: 179 µM
IC50 [5]: 183 µM

Structure (SMILES): COc1ccc(/C=N/c2nc3ccccc3[nH]2)cc1OC
IC50 [4]: 106 µM
IC50 [5]: 154 µM

Structure (SMILES): COc1cc(/C=N/c2nc3ccccc3[nH]2)cc(OC)c1OC
IC50 [4]: 52.4 µM
IC50 [5]: 50.4 µM

Structure (SMILES): Brc1ccccc1/C=N/c1nc2ccccc2[nH]1
IC50 [4]: 35.3 µM
IC50 [5]: 26.3 µM

Structure (SMILES): Brc1ccc(/C=N/c2nc3ccccc3[nH]2)cc1
IC50 [4]: 32 µM
IC50 [5]: 33.3 µM

Structure (SMILES): Clc1ccccc1/C=N/c1nc2ccccc2[nH]1
IC50 [4]: 31.7 µM
IC50 [5]: 63.4 µM

Structure (SMILES): Clc1cccc(/C=N/c2nc3ccccc3[nH]2)c1
IC50 [4]: 75.5 µM
IC50 [5]: 52.4 µM

Structure (SMILES): O=[N+]([O-])c1ccc(/C=N/c2nc3ccccc3[nH]2)cc1
IC50 [4]: 88.3 µM
IC50 [5]: 87.1 µM

Structure (SMILES): FC(F)(F)c1ccc(/C=N/c2nc3ccccc3[nH]2)cc1
IC50 [4]: 200 µM

IC50 (CCRF-CEM): 2 µM
IC50 (CCRF-SB): 4 µM
Structure (SMILES): Clc1cccc(/C=N\c2nsc3ccccc23)c1
IC50 (WIL2-NS): 10 µM
IC50 (MT4): 6 µM

IC50 (CCRF-CEM): 2 µM
IC50 (CCRF-SB): 5 µM
Structure (SMILES): COc1cccc(/C=N\c2nsc3ccccc23)c1O
IC50 (WIL2-NS): 10 µM
IC50 (MT4): 5 µM

IC50 (CCRF-CEM): 2.5 µM
IC50 (CCRF-SB): 4 µM
Structure (SMILES): COc1cc(/C=N\c2nsc3ccccc23)ccc1O
IC50 (WIL2-NS): 10 µM
IC50 (MT4): 5 µM

IC50 (CCRF-CEM): 2 µM
IC50 (MCF7 [6]): 10 µM
IC50 (SK-MEL-28): 6 µM
IC50 (CCRF-SB): 5 µM
Structure (SMILES): O=[N+]([O-])c1ccc(/C=N\c2nsc3ccccc23)o1
IC50 (WIL2-NS): 6.5 µM
IC50 (MT4): 2 µM

IC50 (CCRF-CEM): 2 µM
IC50 (CCRF-SB): 3 µM
Structure (SMILES): Cc1ccc2snc(/N=C\c3ccccc3O)c2c1
IC50 (WIL2-NS): 6 µM
IC50 (MT4): 5 µM

IC50 (CCRF-CEM): 1.5 µM
IC50 (CCRF-SB): 3 µM
Structure (SMILES): Cc1ccc2snc(/N=C\c3ccccc3Cl)c2c1
IC50 (WIL2-NS): 5 µM
IC50 (MT4): 3 µM

IC50 (CCRF-CEM): 1.5 µM
IC50 (CCRF-SB): 4 µM
Structure (SMILES): Cc1ccc2snc(/N=C\c3cccc(Cl)c3)c2c1
IC50 (WIL2-NS): 7 µM
IC50 (MT4): 2 µM

IC50 (CCRF-CEM): 1.5 µM
IC50 (CCRF-SB): 4 µM
Structure (SMILES): COc1ccc(/C=N\c2nsc3ccc(C)cc23)cc1
IC50 (WIL2-NS): 6.5 µM
IC50 (MT4): 4 µM

IC50 (HCT-116 [7]): 9.1 µM
Structure (SMILES): Oc1ccc(Br)cc1/C=N/Cc1cccs1
IC50 (HEp-2): 3.8 µM
Ratio IC50 (HCT-116 [8]): >2

IC50 (HeLa [9]): 165 µM
IC50 (A549 [10]): 2 µM
IC50 (HeLa [11]): 123 µM
IC50 (A549 [12]): 1.6 µM
Structure (SMILES): O=[N+]([O-])c1ccc(/C=N/c2ccccc2)cc1

IC50 (HeLa [9]): 1.9 µM
IC50 (A549 [10]): 161 µM
IC50 (HeLa [11]): 0.9 µM
IC50 (A549 [12]): 138 µM
Structure (SMILES): FC(F)(F)c1ccc(/C=N/c2ccccc2)cc1

IC50 (KB [13]): 22.2 µM
IC50 (KB [14]): 21.2 µM
Structure (SMILES): O=C(NO)N/N=C/c1cc(Cl)cc(Cl)c1O

IC50 (K562): 35 µM
Structure (SMILES): CSC(=S)N/N=C(\c1ccccc1)c1ccccn1

IC50 (MCF7 [15]): 0.3 µM
IC50 (KB [16]): 1.6 µM
IC50 (MCF7 [17]): 1 µM
Structure (SMILES): CC/N=C/c1c(O)c(O)c(C(C)C)c2cc(C)c(-c3c(C)cc4c(C(C)C)c(O)c(O)c(/C=N/CC)c4c3O)c(O)c12 (stereo in doubt; (+)-74)

IC50 (MCF7 [15]): 0.4 µM
IC50 (KB [16]): 1 µM
IC50 (MCF7 [17]): 5 µM
Structure (SMILES): CC/N=C/c1c(O)c(O)c(C(C)C)c2cc(C)c(-c3c(C)cc4c(C(C)C)c(O)c(O)c(/C=N/CC)c4c3O)c(O)c12 (stereo in doubt; (+/-)-74)

IC50 (MCF7 [15]): 0.8 µM
IC50 (KB [16]): 0.3 µM
IC50 (MCF7 [17]): 0.2 µM
Structure (SMILES): CC/N=C/c1c(O)c(O)c(C(C)C)c2cc(C)c(-c3c(C)cc4c(C(C)C)c(O)c(O)c(/C=N/CC)c4c3O)c(O)c12 (stereo in doubt; (-)-74)
